Experimental data reported in patent publication US8575135B2 (Gilead Sciences, Inc., priority 2011, dated 2013).
Like-named read-outs stand apart in the source and are kept apart here.

Key:
Test in all cases: microbe, parasite or virus in culture
Details in all cases: Hepatitis C virus
[1] = system: stable HCV 1a RLuc replicon cells (genotype 1a H77 replicon); assay type: cell-based
[2] = system: stable HCV 2a JFH-1 Rluc replicon cells (L31 present in NS5A); assay type: cell-based
[3] = system: NS5A chimeric genotype 1b Con1 replicon with genotype 3a S52 strain NS5A gene; assay type: cell-based, HCV
In short: (§1)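 Con1 1b replicons carrying 3a S52 or 4a ED43 NS5A with Pi-RLuc reporter were transiently transfected into Huh-Lunet cells; 2b MD2b-1 NS5A (M31) in JFH-1 2a backbone with RLuc-Neo, transient or stable.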

[4] = system: NS5A chimeric genotype 2a JFH-1 replicon with genotype 2a J6 strain NS5A gene (M31 present); assay type: cell-based, HCV
[5] = system: NS5A chimeric genotype 2a JFH-1 replicon with genotype 2b MD2b-1 strain NS5A gene (M31 present); assay type: cell-based, HCV
In short: as §1

[6] = system: NS5A chimeric genotype 1b Con1 replicon with genotype 4a ED43 strain NS5A gene; assay type: cell-based, HCV
[7] = system: 1a Pi-Rluc replicon with Q30R in genotype 1a NS5A; assay type: cell-based, HCV
Experimental: Antiviral potency (EC50) was determined using a Renilla luciferase (RLuc)-based HCV replicon reporter assay. […] To perform the assay for genotype 2a (with M31 present in NS5A) or 2b, NS5A chimeric genotype 2a JFH-1 replicons that encodes a RLuc-Neo reporter and either genotype 2a J6 strain NS5A gene or genotype 2b MD2b-1 strain NS5A gene (both with M31 present) respectively, were either transiently transfected (t) into Huh-Lunet cells or were established as stably replicating replicon cells (s) is provided. Either cells were dispensed into 384-well plates for EC50 assays. To perform the assay for genotype 3 and 4, NS5A chimeric genotype 1b Con1 replicons that encodes a Pi-RLuc reporter and either genotype 3a S52 strain NS5A gene or genotype 4a ED43 strain NS5A gene respectively, were transiently transfected (t) into Huh-Lunet cells, which were subsequently dispensed into 384-well plates. Compounds were dissolved in DMSO at a concentration of 10 mM and diluted in DMSO either manually or using an automated pipeting instrument. Serially 3-fold diluted compounds were either manually mixed with cell culture media and added to the seeded cells or directly added to the cells using an automated instrument. […] 72 hours later, cells were lysed and Renilla luciferase activity quantified as recommended by the manufacturer (Promega-Madison, Wis.). Non-linear regression was performed to calculate EC50 values.
To determine the antiviral potency (EC50) against resistance mutants, resistance mutations, including M28T, Q30R, Q30H, L31M, and Y93C in genotype 1a NS5A and Y93H in genotype 1b NS5A, were introduced individually into either 1a Pi-Rluc or 1b Pi-Rluc replicons by site directed mutagenesis. Replicon RNA of each resistant mutant was transiently transfected into Huh-7-derived cured-51 cells and antiviral potency was determined on these transfected cells as described above.

SMILES: COC(=O)N[C@H](C(=O)N1CCC[C@H]1c1ncc(-c2ccc3c(c2)COc2cc4c(ccc5nc([C@@H]6C[C@H](C)CN6C(=O)[C@@H](NC(=O)OC)C(C)C)[nH]c54)cc2-3)[nH]1)C(C)C [Compound 526]
- EC50 ([1]; read-out: 1a): < 1 nM
- EC50 ([1]; read-out: 1a (nM)): 0.011 nM
- EC50 ([2]; read-out: 2a JFH): < 1 nM
- EC50 ([2]; read-out: 2a JFH (nM)): 0.007 nM
- EC50 ([3]; read-out: 3a): < 1 nM
- EC50 ([3]; read-out: 3a (nM)): 0.018 nM
- EC50 ([4]; read-out: 2a J6): < 1 nM
- EC50 ([4]; read-out: 2a J6 (s) (nM)): 1.64 nM
- EC50 ([4]; read-out: 2a Jb (t) (nM)): 0.443 nM
- EC50 ([5]; read-out: 2b): < 1 nM
- EC50 ([5]; read-out: 2b (s) (nM)): 0.404 nM
- EC50 ([5]; read-out: 2b (t) (nM)): 0.132 nM
- EC50 ([6]; read-out: 4a): < 1 nM
- EC50 ([6]; read-out: 4a (s) (nM)): 0.011 nM
- EC50 ([6]; read-out: 4a (t) (nM)): 0.011 nM
- EC50 ([7]; read-out: 1a Q30R): < 1 nM
- EC50 ([7]; read-out: 1a Q30R (nM)): 0.095 nM

SMILES: COC(=O)N[C@H](C(=O)N1[C@@H]2C[C@@H]2C[C@H]1c1nc2ccc3cc4c(cc3c2[nH]1)OCc1cc(-c2cnc([C@@H]3CCCN3C(=O)[C@H](NC(=O)OC)c3ccccc3)[nH]2)ccc1-4)C(C)C [Compound 536]
- EC50 ([1]; read-out: 1a): < 1 nM
- EC50 ([1]; read-out: 1a (nM)): 0.008 nM
- EC50 ([2]; read-out: 2a JFH): < 1 nM
- EC50 ([2]; read-out: 2a JFH (nM)): 0.004 nM
- EC50 ([3]; read-out: 3a): < 1 nM
- EC50 ([3]; read-out: 3a (nM)): 0.009 nM
- EC50 ([4]; read-out: 2a J6): < 1 nM
- EC50 ([4]; read-out: 2a J6 (s) (nM)): 0.154 nM
- EC50 ([4]; read-out: 2a Jb (t) (nM)): 0.04 nM
- EC50 ([5]; read-out: 2b): < 1 nM
- EC50 ([5]; read-out: 2b (s) (nM)): 0.037 nM
- EC50 ([5]; read-out: 2b (t) (nM)): 0.011 nM
- EC50 ([6]; read-out: 4a): < 1 nM
- EC50 ([6]; read-out: 4a (s) (nM)): 0.01 nM
- EC50 ([6]; read-out: 4a (t) (nM)): 0.005 nM
- EC50 ([7]; read-out: 1a Q30R): < 1 nM
- EC50 ([7]; read-out: 1a Q30R (nM)): 0.048 nM

SMILES: COC(=O)N[C@H](C(=O)N1CCC[C@H]1c1ncc(-c2ccc3c(c2)COc2cc4c(ccc5nc([C@@H]6CCCN6C(=O)[C@H](NC(=O)OC)c6ccccc6)[nH]c54)cc2-3)[nH]1)[C@@H](C)OC [Compound 588]
- EC50 ([1]; read-out: 1a): < 1 nM
- EC50 ([1]; read-out: 1a (nM)): 0.012 nM
- EC50 ([2]; read-out: 2a JFH): < 1 nM
- EC50 ([2]; read-out: 2a JFH (nM)): 0.004 nM
- EC50 ([3]; read-out: 3a): < 1 nM
- EC50 ([3]; read-out: 3a (nM)): 0.027 nM
- EC50 ([4]; read-out: 2a J6): < 1 nM
- EC50 ([4]; read-out: 2a J6 (s) (nM)): 0.14 nM
- EC50 ([4]; read-out: 2a Jb (t) (nM)): 0.038 nM
- EC50 ([5]; read-out: 2b): < 1 nM
- EC50 ([5]; read-out: 2b (s) (nM)): 0.017 nM
- EC50 ([5]; read-out: 2b (t) (nM)): 0.012 nM
- EC50 ([6]; read-out: 4a): < 1 nM
- EC50 ([6]; read-out: 4a (t) (nM)): 0.019 nM
- EC50 ([7]; read-out: 1a Q30R): < 1 nM
- EC50 ([7]; read-out: 1a Q30R (nM)): 0.087 nM

SMILES: COC(=O)N[C@H](C(=O)N1[C@@H](C)CC[C@H]1c1ncc(-c2ccc3c(c2)COc2cc4c(ccc5nc([C@@H]6CCCN6C(=O)[C@@H](NC(=O)OC)[C@@H](C)OC)[nH]c54)cc2-3)[nH]1)C(C)C [Compound 603]
- EC50 ([1]; read-out: 1a): < 1 nM
- EC50 ([1]; read-out: 1a (nM)): 0.009 nM
- EC50 ([2]; read-out: 2a JFH): < 1 nM
- EC50 ([2]; read-out: 2a JFH (nM)): 0.007 nM
- EC50 ([3]; read-out: 3a): < 1 nM
- EC50 ([3]; read-out: 3a (nM)): 0.015 nM
- EC50 ([4]; read-out: 2a J6): < 1 nM
- EC50 ([4]; read-out: 2a Jb (t) (nM)): 0.194 nM
- EC50 ([5]; read-out: 2b): < 1 nM
- EC50 ([5]; read-out: 2b (s) (nM)): 0.088 nM
- EC50 ([5]; read-out: 2b (t) (nM)): 0.067 nM
- EC50 ([6]; read-out: 4a): < 1 nM
- EC50 ([6]; read-out: 4a (s) (nM)): 0.022 nM
- EC50 ([7]; read-out: 1a Q30R): < 1 nM
- EC50 ([7]; read-out: 1a Q30R (nM)): 0.146 nM
